Measurements: paper PMC9610990, “Inhibitory Activity of Bioactive Phloroglucinols from the Rhizomes of Dryopteris crassirhizoma on Escherichia coli β-Glucuronidase: Kinetic Analysis and Molecular Docking Studies” (Metabolites, 2022)
Like-named read-outs stand apart in the source and are kept apart here.

Tests used:
[1] = target: T1, β-Glucuronidase from E. coli (Escherichia coli, UniProt P05804); assay: β-Glucuronidase inhibitory activity assay with PNPG substrate; conditions: for inhibition at 100 µM: read-out: Inhibition of Compounds on β-glucuronidase, Inhibition at 100 μM (%); for Inhibition of Compounds on β-glucuronidase, Inhibition at 100 μM (%): compound at 100 μM
T1 sequence (P05804 whole entry): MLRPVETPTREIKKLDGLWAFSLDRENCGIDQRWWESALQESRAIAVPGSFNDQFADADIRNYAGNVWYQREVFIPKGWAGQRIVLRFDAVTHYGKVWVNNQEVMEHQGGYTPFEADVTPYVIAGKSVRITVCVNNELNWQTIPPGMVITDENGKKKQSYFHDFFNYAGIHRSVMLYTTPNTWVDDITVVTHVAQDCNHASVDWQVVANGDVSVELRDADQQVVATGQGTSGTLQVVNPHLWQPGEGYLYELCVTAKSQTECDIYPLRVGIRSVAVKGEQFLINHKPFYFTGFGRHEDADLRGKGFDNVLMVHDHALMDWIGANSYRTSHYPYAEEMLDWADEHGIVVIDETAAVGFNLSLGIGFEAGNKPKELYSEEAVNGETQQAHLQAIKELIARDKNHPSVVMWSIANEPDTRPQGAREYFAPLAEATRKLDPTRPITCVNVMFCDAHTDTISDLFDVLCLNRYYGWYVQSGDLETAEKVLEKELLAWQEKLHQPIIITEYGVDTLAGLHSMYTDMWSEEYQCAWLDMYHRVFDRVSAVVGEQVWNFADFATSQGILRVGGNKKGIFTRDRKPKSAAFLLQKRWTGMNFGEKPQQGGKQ

[2] = target: T1, β-Glucuronidase from E. coli; assay: Inhibition kinetic analysis with β-glucuronidase (Lineweaver–Burk and Dixon plots); type: biochemical; conditions: for Ki: determined by Dixon plots; for Inhibition Type: determined by Lineweaver–Burk plots
Procedure: To identify the inhibition mode of the active compounds on β-glucuronidase, two enzyme kinetic methodologies, the Lineweaver-Burk and Dixon methods, were used. The mode of β-glucuronidase inhibition was determined using a Lineweaver–Burk plot (or double reciprocal plot) at various concentrations of the substrate in the absence or presence of the test compound (concentrations: 0, 10, 20, 40, 60, and 80 µM for 13 and 15; 0, 7.5, 15, 30, 60, and 80 µM for 14; 0, 5, 10, 20, 40, and 60 µM for 26 and 27; and 0, 2.5, 5, 10, 20, and 40 µM for 28). The enzymatic reactions at various concentrations of the test compounds were evaluated by monitoring the effects of different substrate concentrations using Dixon plots (or single reciprocal plots) (0.25, 0.5, 1, and 2.5 mM). Ki values were determined by analyzing the Dixon plot, where the x-axis value was taken as Ki.

[3] = tested on: PTP1B enzyme; design: method as in PMID 34416263; conditions: in words; cited from earlier work
[4] = tested on: neuraminidase of influenza virus H5N1; conditions: read-out: inhibitory effect on neuraminidase IC50; cited from earlier work
[5] = tested on: B16F10 murine melanoma cells; design: method as in doi:10.1016/j.phytol.2017.05.022; conditions: read-out: inhibition of melanin production IC50; cited from earlier work
[6] = PNPG substrate, mean ± SEM of three independent experiments
[7] = read-out: Inhibition of Compounds on β-glucuronidase, IC50, PNPG substrate, mean ± SEM of three independent experiments

CCC(=O)c1c(O)cc(O)c(CC2=C(O)C(C)(C)C(O)=C(C(C)=O)C2=O)c1O [Compound 16, norflavaspidic acid AP]
IC50 [1]: 64.4 ± 3.5 µM | inhibition at 100 µM [1]: 68.3 ± 0.2%

CC(=O)c1c(O)cc(O)cc1O [Compound 1, 2,4,6-trihydroxy-acetophenone]
IC50 [1]: > 100 µM | inhibition at 100 µM [1]: 11.6 ± 3.9%

CCCC(=O)c1c(O)cc(O)c(-c2c(O)cc(O)c(C(=O)CCC)c2O)c1O [Compound 12, bis-phlorobutyrophenone]
IC50 [1]: > 100 µM | inhibition at 100 µM [1]: 34.1 ± 0.5%

CCCC(=O)c1c(O)c(CC2=C(O)C(C)(C)C(O)=C(C(C)=O)C2=O)c(O)c(C2CCCN2C(=N)N)c1O (centres unmarked) [Compound 25, dryopcrassirine AB]
IC50 [1]: > 100 µM | inhibition at 100 µM [1]: 30.7 ± 1.7%

CCCC(=O)C1=C(O)C(C)(C)C(O)=C(Cc2c(O)c(Cc3c(O)c(C)c(O)c(C(=O)CCC)c3O)c(O)c(C(=O)CCC)c2O)C1=O [Compound 28, trisflavaspidic acid BBB]
Ki [2]: 2.8 µM | Inhibition Type [2]: Competitive | IC50 [1]: 5.6 ± 1.1 µM | inhibition at 100 µM [1]: 106 ± 3.4% | activity toward the PTP1B enzyme [3]: significant activity

CCCC(=O)C1=C(O)C(C)(C)C(O)=C(Cc2c(O)cc(O)c(C(=O)CCC)c2O)C1=O [Compound 19, norflavaspidic acid BB]
IC50 [1]: > 100 µM | inhibition at 100 µM [1]: 41 ± 1.4%

CCC(=O)c1c(O)c(C(=O)CC)c(O)c(C(=O)CC)c1O [Compound 10, tripropionylphloroglucinol]
IC50 [1]: > 100 µM | inhibition at 100 µM [1]: 41.4 ± 1.7%

1-(2, 4, 6-trihydroxy-3-methylphenyl) butanone [Compound 8]
Inhibition of Compounds on β-glucuronidase, Inhibition at 100 μM (%) [1, 6]: 24.9 ± 5.5% | IC50 [1, 7]: > 100 µM

CCCC(=O)c1c(O)c(C)c(O)c(Cc2c(O)c(CC3=C(O)C(C)(C)C(O)=C(C(C)=O)C3=O)c(O)c(C(=O)CCC)c2O)c1O [Compound 27, trisflavaspidic acid ABB]
Ki [2]: 0.5 µM | Inhibition Type [2]: Competitive | IC50 [1]: 7.1 ± 2.6 µM | inhibition at 100 µM [1]: 101.2 ± 0.6% | activity toward the PTP1B enzyme [3]: significant activity

CCCC(=O)c1c(O)cc(O)c(C(=O)CCC)c1O [Compound 6, 1,3-(2,4,6-trihydroxyphenyl)dibutanone]
IC50 [1]: > 100 µM | inhibition at 100 µM [1]: 33.7 ± 2.3%

CCCC(=O)c1c(O)c(C(=O)CCC)c(O)c(C(=O)CCC)c1O [Compound 11, tributyrylphloroglucinol]
IC50 [1]: 43 ± 2.9 µM | inhibition at 100 µM [1]: 87.3 ± 3.4%

CCCC(=O)c1c(O)cc(O)c(Cc2c(O)cc(O)c(C(=O)CC)c2O)c1O [Compound 13, dryopidin PB]
Ki [2]: 6.3 µM | Inhibition Type [2]: Competitive | IC50 [1]: 18.1 ± 1.5 µM | inhibition at 100 µM [1]: 93.7 ± 0.3%

CCC(=O)c1c(O)cc(O)c(C(=O)CC)c1O [Compound 5, 1,3-(2,4,6-trihydroxyphenyl)dipropanone]
IC50 [1]: > 100 µM | inhibition at 100 µM [1]: 27.1 ± 0.4%

O=C(O)[C@@H](O)[C@H]1OC(=O)[C@H](O)[C@H]1O [DSA, D-saccharic acid 1,4-lactone, reference compound]
IC50 [1]: 23.4 ± 1.5 µM | inhibition at 100 µM [1]: 79 ± 0.3%

CCCC(=O)c1c(O)cc(O)cc1O [Compound 3, phlorobutyrophenone]
IC50 [1]: > 100 µM | inhibition at 100 µM [1]: 22 ± 2.1%

CCC(=O)c1c(O)c(C)c(O)c(CC2=C(O)C(C)(C)C(O)=C(C(C)=O)C2=O)c1O [Compound 21, flavaspidic acid AP]
IC50 [1]: > 100 µM | inhibition at 100 µM [1]: 47.9 ± 4.7%

1-(2,4,6-trihydroxy-3-methylphenyl)propanone [Compound 7]
Inhibition of Compounds on β-glucuronidase, Inhibition at 100 μM (%) [1, 6]: 26.7 ± 1.5% | IC50 [1, 7]: > 100 µM

CCCC(=O)c1c(O)cc(O)c(Cc2c(O)c(CC3=C(O)C(C)(C)C(O)=C(C(C)=O)C3=O)c(O)c(C(=O)CCC)c2O)c1O [Compound 26, nortrisflavaspidic acid ABB]
Ki [2]: 7.5 µM | Inhibition Type [2]: Competitive | IC50 [1]: 8 ± 1.8 µM | inhibition at 100 µM [1]: 98.1 ± 2.5% | IC50 [4]: 51.5 µM | activity toward the PTP1B enzyme [3]: significant activity

CCCC(=O)c1c(O)cc(O)c(CC2=C(O)C(C)(C)C(O)=C(C(=O)CC)C2=O)c1O [Compound 18, norflavaspidic acid PB]
IC50 [5]: 35.7 µM | IC50 [1]: > 100 µM | inhibition at 100 µM [1]: 42.2 ± 0.1%

CCCC(=O)c1c(O)cc(O)c(Cc2c(O)cc(O)c(C(=O)CCC)c2O)c1O [Compound 14, methylene-bis-phlorobutyrophenone]
Ki [2]: 4.3 µM | Inhibition Type [2]: Competitive | IC50 [1]: 14.4 ± 0.6 µM | inhibition at 100 µM [1]: 97.1 ± 0.7%

CCCC(=O)c1c(O)c(C)c(O)c(CC2=C(O)C(C)(C)C(O)=C(C(C)=O)C2=O)c1O [Compound 22, flavaspidic acid AB]
IC50 [1]: > 100 µM | inhibition at 100 µM [1]: 48.7 ± 4.8%

CCCC(=O)c1c(O)c(C)c(O)c(CC2=C(O)C(C)(C)C(O)=C(C(=O)CC)C2=O)c1O [Compound 23, flavaspidic acid PB]
IC50 [5]: 38.9 µM | IC50 [1]: 76.5 ± 1.5 µM | inhibition at 100 µM [1]: 73.5 ± 0.7%

CCCC(=O)c1c(O)c(CC2=C(O)C(C)(C)C(O)=C(C(C)=O)C2=O)c(O)c(CC2=C(O)C(C)(C)C(O)=C(C(C)=O)C2=O)c1O [Compound 29, filixic acid ABA]
IC50 [1]: 90.5 ± 2.7 µM | inhibition at 100 µM [1]: 53.4 ± 2.3% | IC50 [4]: 29.6 µM

CC(=O)C1=C(O)C(C)(C)C(O)=C(Cc2c(O)c(C)c(O)c(C(C)=O)c2O)C1=O [Compound 20, flavaspidic acid AA]
IC50 [1]: 75.7 ± 1.2 µM | inhibition at 100 µM [1]: 76.1 ± 3.4%

CCC(=O)c1c(O)cc(O)cc1O [Compound 2, 1-(2,4,6-trihydroxy-phenyl)-propan-1-one]
IC50 [1]: > 100 µM | inhibition at 100 µM [1]: 24.4 ± 0.2%

CC(=O)c1c(O)cc(O)c(C(C)=O)c1O [Compound 4, 5-acetyl-2,4,6-trihydroxyacetophenone]
IC50 [1]: > 100 µM | inhibition at 100 µM [1]: 22.1 ± 2.4%

CCCC(=O)c1c(O)cc(O)c(Cc2c(O)c(C)c(O)c(C(=O)CCC)c2O)c1O [Compound 15, araspidin BB]
Ki [2]: 25.8 µM | Inhibition Type [2]: Competitive | IC50 [1]: 17 ± 2.5 µM | inhibition at 100 µM [1]: 89.1 ± 0.3%

CCCC(=O)c1c(O)cc(O)c(CC2=C(O)C(C)(C)C(O)=C(C(C)=O)C2=O)c1O [Compound 17, norflavaspidic acid AB]
IC50 [1]: 67 ± 1.3 µM | inhibition at 100 µM [1]: 65.1 ± 0.1%

CCCC(=O)c1c(O)c(CC2=C(O)C(C)(C)C(O)=C(C(C)=O)C2=O)c(O)c(Cc2c(O)c(CC3=C(O)C(C)(C)C(O)=C(C(C)=O)C3=O)c(O)c(C(=O)CCC)c2O)c1O [Compound 30, dryocrassin ABBA]
IC50 [1]: 94.9 ± 2.5 µM | inhibition at 100 µM [1]: 51.8 ± 2.7%
